Experimental findings from patent US10851067B2, “Kv7 channel activators compositions and methods of use” (Knopp Biosciences LLC, priority 2018, dated 2020) are described below.

Structures are written as SMILES.

The target in this assay is Kv7.2/7.3 (Homo sapiens, UniProt O43525+O43526). Briefly: Kv7.2/7.3 Activation Assay, QPatch single concentration screen. It counts as cell-based. Also noted: host or cells: HEK cells, tetracycline-inducible expression; key: 1.2-2.9 (+); 3-3.9 (++); >4 (+++) fold increase over baseline; O represents open channel at holding potential. The settings on record: Kv7.2/Kv7.3 co-expressing HEK cells, compound concentration 3 μM, steady-state current at end of 2 s pulse to −30 mV. The procedure: Kv7.2/7.3 Activation Assay
The ability of compounds to potentiate K-currents in Kv7.2/7.3 containing HEK cells was assessed using planar patch-clamp on the QPatch automated screening platform.
The hKv7.2/7.3 cell line was obtained from Chantest (Cleveland, Ohio 44128) cat. #CT6147. These HEK cells will express the Kv7.2/7.3 ion channels when induced.
Cells were maintained in a media containing DMEM/F12; 50/50 (GIBCO cat. #11330), 10% Fetal Bovine Serum (FBS) (GIBCO cat. #26140), 100 units/mL Penicillin-Streptomycin (GIBCO cat. #15140), 0.005 mg/mL Blasticidin (INVIVOGEN cat. #ant-b1-1), 0.5 mg/mL Geneticin (GIBCO cat. #10131), 0.1 mg/mL Zeocin (GIBCO cat. #R25001). Cells used in the electrophysiology assay were maintained in a media without Blasticidin, Geneticin and Zeocin for 2 days and channel expression was induced by adding tetracycline (BIOLINE cat. #BIO-87030) at a final concentration of 1 mg/mL. Cells were grown in T-175 flask to ˜75% confluency. Currents were recorded 24 hours after channel induction.
Test compounds were prepared by performing serial dilutions on a Biomek NX^P (BECKMAN COULTER). Final dilutions were made in external recording solution with a final DMSO concentration of 0.1% DMSO. For single concentration screens each plate had 10 μM retigabine as a positive control and 0.1% DMSO as a negative control.
On the day of the experiment cells were washed with Hank's Balanced Salt Solution (HBBS) (GIBCO cat. #14175) and harvested with Tryple (GIBCO cat. #12604). Cells were then centrifuged at 2000 rpm for 5 minutes and resuspended in CHO-S-SFM (GIBCO cat. #12052) at ˜3×10^6 cells/mL. Cells were stirred for 30 minutes before experiments were started. External recording solution contained (in mM): NaCl (145), KCl (4), CaCl2 (2), MgCl2 (1), HEPES (10) and Glucose (10); pH was adjusted to 7.4 with NaOH and the osmolarity was adjusted to 300-305 mOsM with sucrose if necessary. Internal solution contained (in mM): KCl (125), KF (10), EGTA (5), Na2ATP (5), MgCl2 (3.2), HEPES (5); pH was adjusted to 7.2 with KOH and the osmolarity was adjusted to 298-302 mOsM with sucrose.
Potassium channel activity was measured on the QPatch HTX (Sophion Bioscience) using QPlates with 48-wells/plate. Each cell was taken as an independent experiment and only one compound was tested per well. Potassium channel activity was elicited by holding at −80 mV and stepping to −30 mV for 2 s followed by a 100 ms pulse to −120 mV.
Single Concentration Screen:
Baseline conditions were obtained by recording 5 sweeps in the external solution only, this was repeated for three applications of the external solution. The effect of test compounds on elicited current was then assessed by recording 5 sweeps in the presence of a 3 μM compound solution. The steady-state current at the end of the 2 s pulse to −30 mV was measured to determine the fold increase from baseline.
Background: Patch clamp records ionic current or voltage across a cell membrane.
Take `CC1(n2c(NC(=O)CC(C)(C)C(F)(F)F)nc3c(F)cc(OC(F)F)cc32)CCC1` [Example 461, N-(6-(difluoromethoxy)-4-fluoro-1-(1-methylcyclobutyl)-1H-benzo[d]imidazol-2-yl)-4,4,4-trifluoro-3,3-dimethylbutanamide]: the “Kv7.2/7.3 Activity: increase over baseline in current” value (“Kv7.2/7.3 Activity: increase” for short) is listed as “+ (1.2-2.9 (+))”.

With `CC(C)(CC(=O)Nc1nc2cc(F)c(OC(F)F)cc2n1C1(C)CCC1)C1CC1` [Example 367, 3-cyclopropyl-N-(6-(difluoromethoxy)-5-fluoro-1-(1-methylcyclobutyl)-1H-benzo[d]imidazol-2-yl)-3-methylbutanamide], the “Kv7.2/7.3 Activity: increase” value was “++ (3-3.9 (++))”.

With `CC(C)(C)CC(=O)Nc1nc2cc(C(C)(C)O)c(C(F)(F)F)cc2n1C1CCC1` [Example 450, N-(1-cyclobutyl-5-(2-hydroxypropan-2-yl)-6-(trifluoromethyl)-1H-benzo[d]imidazol-2-yl)-3,3-dimethylbutanamide], the “Kv7.2/7.3 Activity: increase” value is listed as “+ (1.2-2.9 (+))”.

Turning to `CC(C)(C)CC(=O)Nc1nc2c(Cl)cc(C#N)cc2n1C1CCC1` [Example 377, N-(4-chloro-6-cyano-1-cyclobutyl-1H-benzo[d]imidazol-2-yl)-3,3-dimethylbutanamide], the “Kv7.2/7.3 Activity: increase” value was “+++ (>4 (+++) fold increase over baseline)”.

Consider `CC(C)(O)CC(=O)Nc1nc2ccc(OC(F)F)c(F)c2n1C1(C)CCC1` [Example 351, N-(6-(difluoromethoxy)-7-fluoro-1-(1-methylcyclobutyl)-1H-benzo[d]imidazol-2-yl)-3-hydroxy-3-methylbutanamide], for which the “Kv7.2/7.3 Activity: increase” value was “+ (1.2-2.9 (+))”.

Turning to `C[C@H](CC(=O)Nc1nc2c(F)cc(C(C)(C)O)cc2n1C1CCC1)c1ccccc1` [Example 412, (R)-N-(1-cyclobutyl-4-fluoro-6-(2-hydroxypropan-2-yl)-1H-benzo[d]imidazol-2-yl)-3-phenylbutanamide], the “Kv7.2/7.3 Activity: increase” value is listed as “++ (3-3.9 (++))”.

Take `CC(C)(CC(=O)Nc1nc2cccc(F)c2n1C1CCC1)C(F)(F)F` [Example 408, N-(1-cyclobutyl-7-fluoro-1H-benzo[d]imidazol-2-yl)-4,4,4-trifluoro-3,3-dimethylbutanamide]: the “Kv7.2/7.3 Activity: increase” value is given as “++ (3-3.9 (++))”.

With `CC(O)(CC(=O)Nc1nc2ccc(C#N)cc2n1CC(F)(F)F)c1ccccc1` (single isomer, unassigned) [Example 396, N-(6-cyano-1-(2,2,2-trifluoroethyl)-1H-benzo[d]imidazol-2-yl)-3-hydroxy-3-phenylbutanamide], the “Kv7.2/7.3 Activity: increase” value is recorded as “+ (1.2-2.9 (+))”.

Turning to `CC(C)(CC(=O)Nc1nc2ccc(C#N)cc2n1C(C)(C)C(F)(F)F)C(F)(F)F` [Example 484, N-(6-cyano-1-(1,1,1-trifluoro-2-methylpropan-2-yl)-1H-benzo[d]imidazol-2-yl)-4,4,4-trifluoro-3,3-dimethylbutanamide], the “Kv7.2/7.3 Activity: increase” value is given as “+ (1.2-2.9 (+))”.

For `CC(O)(CC(=O)Nc1nc2cccc(C#N)c2n1C1(C)CCC1)c1ccccc1` (single isomer, unassigned) [Example 468, N-(7-cyano-1-(1-methylcyclobutyl)-1H-benzo[d]imidazol-2-yl)-3-hydroxy-3-phenylbutanamide], the “Kv7.2/7.3 Activity: increase” value is on record as “+ (1.2-2.9 (+))”.

Turning to `CC(C)(C)CC(=O)Nc1nc2c(F)cc(C3(O)CCC3)cc2n1C1CCC1` [Example 421, N-(1-cyclobutyl-4-fluoro-6-(1-hydroxycyclobutyl)-1H-benzo[d]imidazol-2-yl)-3,3-dimethylbutanamide], the “Kv7.2/7.3 Activity: increase” value was “+++ (>4 (+++) fold increase over baseline)”.

On to `CN(C)c1ccc2nc(NC(=O)CC(C)(O)c3ccccc3)n(C3CCC3)c2c1F` (single isomer, unassigned) [Example 485, N-(1-cyclobutyl-6-(dimethylamino)-7-fluoro-1H-benzo[d]imidazol-2-yl)-3-hydroxy-3-phenylbutanamide], for which the “Kv7.2/7.3 Activity: increase” value is recorded as “+++ (>4 (+++) fold increase over baseline)”.

As to `CC(O)(CC(=O)Nc1nc2ccc(C#N)cc2n1CC1CC1)c1ccccc1` (single isomer, unassigned) [Example 344, N-(6-cyano-1-(cyclopropylmethyl)-1H-benzo[d]imidazol-2-yl)-3-hydroxy-3-phenylbutanamide], the “Kv7.2/7.3 Activity: increase” value is “+ (1.2-2.9 (+))”.

As to `CC(C)(O)c1ccc2nc(NC(=O)CC3CC(F)(F)C3(F)F)n(C3(C)CCC3)c2c1` (single isomer, unassigned) [Example 376, N-(6-(2-hydroxypropan-2-yl)-1-(1-methylcyclobutyl)-1H-benzo[d]imidazol-2-yl)-2-(2,2,3,3-tetrafluorocyclobutyl)acetamide], the “Kv7.2/7.3 Activity: increase” value was “+ (1.2-2.9 (+))”.

Turning to `CC(C)(C)n1c(NC(=O)CC2CC(F)(F)C2(F)F)nc2c(F)cc(C#N)cc21` (single isomer, unassigned) [Example 416, N-(1-(tert-butyl)-6-cyano-4-fluoro-1H-benzo[d]imidazol-2-yl)-2-(2,2,3,3-tetrafluorocyclobutyl)acetamide], the “Kv7.2/7.3 Activity: increase” value is given as “++ (3-3.9 (++))”.

`CC(O)(CC(=O)Nc1nc2cc(F)c(C#N)cc2n1C1CCC1)c1ccccc1` (single isomer, unassigned) [Example 350, N-(6-cyano-1-cyclobutyl-5-fluoro-1H-benzo[d]imidazol-2-yl)-3-hydroxy-3-phenylbutanamide]: the “Kv7.2/7.3 Activity: increase” value is given as “+ (1.2-2.9 (+))”.

As for `CC1(C)C[C@@H]1C(=O)Nc1nc2c(F)cc(C#N)cc2n1C(C)(C)C` [Example 372, (S)-N-(1-(tert-butyl)-6-cyano-4-fluoro-1H-benzo[d]imidazol-2-yl)-2,2-dimethylcyclopropane-1-carboxamide], the “Kv7.2/7.3 Activity: increase” value was “++ (3-3.9 (++))”.

Take `CC(C)(CC(=O)Nc1nc2ccc(C#N)c(F)c2n1C1CCC1)CC(F)(F)F` [Example 345, N-(6-cyano-1-cyclobutyl-7-fluoro-1H-benzo[d]imidazol-2-yl)-5,5,5-trifluoro-3,3-dimethylpentanamide]: the “Kv7.2/7.3 Activity: increase” value is recorded as “+ (1.2-2.9 (+))”.

Consider `CC(C)(C)CC(=O)Nc1nc2c(F)cc(C#N)c(F)c2n1C(C)(C)C` [Example 457, N-(1-(tert-butyl)-6-cyano-4,7-difluoro-1H-benzo[d]imidazol-2-yl)-3,3-dimethylbutanamide], for which the “Kv7.2/7.3 Activity: increase” value is listed as “++ (3-3.9 (++))”.

Turning to `CC(C)(O)c1ccc2nc(NC(=O)CC(C)(O)c3ccccc3)n(C34CC(C3)C4)c2c1` (single isomer, unassigned) [Example 335, N-(1-(bicyclo[1.1.1]pentan-1-yl)-6-(2-hydroxypropan-2-yl)-1H-benzo[d]imidazol-2-yl)-3-hydroxy-3-phenylbutanamide], the “Kv7.2/7.3 Activity: increase” value is listed as “O”.

Take `CC1(CC(=O)Nc2nc3c(F)cc(C(C)(C)O)cc3n2C2CCC2)CC1` [Example 403, N-(1-cyclobutyl-4-fluoro-6-(2-hydroxypropan-2-yl)-1H-benzo[d]imidazol-2-yl)-2-(1-methylcyclopropyl)acetamide]: the “Kv7.2/7.3 Activity: increase” value was “++ (3-3.9 (++))”.

Turning to `CC(C)(C)CC(=O)Nc1nc2c(F)cc(OCc3ccccc3)cc2n1C1CCC1` [Example 388, N-(6-(benzyloxy)-1-cyclobutyl-4-fluoro-1H-benzo[d]imidazol-2-yl)-3,3-dimethylbutanamide], the “Kv7.2/7.3 Activity: increase” value was “+++ (>4 (+++) fold increase over baseline)”.

Regarding `CC(C)(C)CC(=O)Nc1nc2c(F)cc(OC(F)F)cc2n1C1(C)CCC1` [Example 459, N-(6-(difluoromethoxy)-4-fluoro-1-(1-methylcyclobutyl)-1H-benzo[d]imidazol-2-yl)-3,3-dimethylbutanamide], the “Kv7.2/7.3 Activity: increase” value was “+++ (>4 (+++) fold increase over baseline)”.
